Experiment [1] relates to T. gondii tachyzoites (RH-YFP). Type of experiment: cell-based, Toxoplasma gondii. The following applies: 72 h.
For experiment [2], the system named is T. gondii parasites. The following applies: read-out: IC50, growth of T. gondii parasites; cited from earlier work.
The subject of experiment [3] is PfENR. As to conditions: cited from earlier work.
The target of experiment [4] is T1, TgENR (Toxoplasma gondii, UniProt Q6UCJ9).
T1 sequence (Q6UCJ9 103-417 limits assumed): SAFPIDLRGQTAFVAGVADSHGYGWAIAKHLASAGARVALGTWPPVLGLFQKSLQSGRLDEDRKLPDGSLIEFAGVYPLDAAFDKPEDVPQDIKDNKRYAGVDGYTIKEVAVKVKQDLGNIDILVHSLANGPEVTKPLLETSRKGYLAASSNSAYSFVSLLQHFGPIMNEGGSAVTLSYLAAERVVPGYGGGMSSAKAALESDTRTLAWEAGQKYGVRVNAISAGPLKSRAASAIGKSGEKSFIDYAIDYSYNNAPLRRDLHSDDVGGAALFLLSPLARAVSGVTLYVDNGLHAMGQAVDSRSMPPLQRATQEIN
In words: Thermal shift assay, ligand binding to TgENR alone. The following applies: read-out: Kd of NAD^+ binding to TgENR; TSA, binary complex.

pIC50, pKd: −log10 of the molar value. Values after ≈ are worked out from the molar mass of the structure shown.

Broadly, the MIC50 is the lowest concentration that inhibits either 50% of growth or 50% of the strains tested, depending on the study. As a reminder, the pIC50 is the IC50 on a negative log10 scale, so that one unit is a factor of ten. In the case of `Oc1cc(Cl)ccc1Oc1ccc(Cl)cc1Cl` [Triclosan, triclosan], in experiment [1] (RH-YFP tachyzoites in HFF, ± SEM), the “T. gondii MIC50” value was determined as 2.8 ± 0.2 µM. Also, the MIC50 in experiment [1] (Toxoplasma gondii, read-out: T. gondii MIC50) came out at 2.8 µM (≈ 0.811 µg/mL). Further, the pIC50 in experiment [2] was about 6.70. Further, in experiment [3] (PfENR), the “forward rate constant of tight binding complex formation” value was 0.055 s⁻¹.

What is called pKd is the negative decadic logarithm of the Kd, by convention in mol/L. On to `NC(=O)C1=CN([C@@H]2O[C@H](COP(=O)(O)OP(=O)(O)OC[C@H]3O[C@@H](n4cnc5c(N)ncnc54)[C@H](O)[C@@H]3O)[C@@H](O)[C@H]2O)C=CC1` [NADH, nicotinamide adenine dinucleotide], for which, in experiment [3] (read-out: Kd for NADH, PfENR), the pKd was 4.29.

On to `NC(=O)c1ccc[n+]([C@@H]2O[C@H](COP(=O)([O-])OP(=O)(O)OC[C@H]3O[C@@H](n4cnc5c(N)ncnc54)[C@H](O)[C@@H]3O)[C@@H](O)[C@H]2O)c1` [NAD^+], for which, in experiment [4], the pKd is 2.22.

Values taken from paper PMC3953223 (Biochemistry, 2013).
